Test results reported in PubChem BioAssay AID256 (DTP/NCI, 2004).
Where “and” joins values, the source holds several entries; their conditions need not be identical. Identical values can stand only once. Toxic doses and inconclusive results are not listed. The calls were made as follows: active = survival T/C of 150% or more; inactive = T/C below 125% in these data.

Tested on: CD2F1 mice, L1210 leukemia ip, survival T/C
Assay: NCI In Vivo Anticancer Drug Screen. Data for tumor model L1210 Leukemia (intraperitoneal) in CD2F1 (CDF1) mice
Settings: higher = longer survival
Procedure, shortened: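 Compound-dosed mice with transplantable tumor versus matched vehicle controls; endpoint ratio T/C reported.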

[1] = endpoint: mean survival time, dose: 50.0 mg/kg/injection, schedule: Q04DX003 (ip), vehicle: saline with Tween-80
[2] = endpoint: mean survival time, dose: 100.0 mg/kg/injection, schedule: Q04DX003 (ip), vehicle: saline with Tween-80
[3] = endpoint: mean survival time, dose: 200.0 mg/kg/injection, schedule: Q04DX003 (ip), vehicle: saline with Tween-80
[4] = endpoint: mean survival time, dose: 100.0 mg/kg/injection, schedule: Q01DX001 (ip), vehicle: saline with Tween-80
[5] = endpoint: mean survival time, dose: 100.0 mg/kg/injection, schedule: Q04DX003 (ip), vehicle: saline
[6] = endpoint: mean survival time, dose: 200.0 mg/kg/injection, schedule: Q04DX003 (ip), vehicle: saline
[7] = endpoint: mean survival time, dose: 400.0 mg/kg/injection, schedule: Q04DX003 (ip), vehicle: saline
[8] = endpoint: mean survival time, dose: 50.0 mg/kg/injection, schedule: Q01DX009 (ip), vehicle: saline with Tween-80
[9] = endpoint: mean survival time, dose: 100.0 mg/kg/injection, schedule: Q01DX009 (ip), vehicle: saline with Tween-80
[10] = endpoint: mean survival time, dose: 200.0 mg/kg/injection, schedule: Q01DX009 (ip), vehicle: saline with Tween-80
[11] = endpoint: mean survival time, dose: 100.0 mg/kg/injection, schedule: Q01DX009 (ip), vehicle: saline

Measured: T/C

Cc1ccc(N)cc1 (tested in a mixture with another compound)
inactive: endpoint: mean survival time, dose: 12.5 mg/kg/injection, schedule: Q04DX003 (ip), vehicle: saline with Tween-80 97 % of control | endpoint: mean survival time, dose: 25.0 mg/kg/injection, schedule: Q04DX003 (ip), vehicle: saline with Tween-80 101 % of control and 103 % of control | [1] 107 % of control | [2] 110 % of control and 103 % of control and 107 % of control | [3] 105 % of control and 117 % of control | endpoint: mean survival time, dose: 400.0 mg/kg/injection, schedule: Q04DX003 (ip), vehicle: saline with Tween-80 102 % of control

O=C(/C=C/C(=O)c1ccccc1)c1ccccc1
inactive: endpoint: mean survival time, dose: 6.25 mg/kg/injection, schedule: Q01DX001 (ip), vehicle: saline with Tween-80 92 % of control | endpoint: mean survival time, dose: 12.5 mg/kg/injection, schedule: Q01DX001 (ip), vehicle: saline with Tween-80 107 % of control | endpoint: mean survival time, dose: 25.0 mg/kg/injection, schedule: Q01DX001 (ip), vehicle: saline with Tween-80 96 % of control | endpoint: mean survival time, dose: 50.0 mg/kg/injection, schedule: Q01DX001 (ip), vehicle: saline with Tween-80 89 % of control | [4] 94 % of control

CC12CCC3C(CC=C4CC(SC(=N)N)CCC43C)C1CCC2=O (configuration not stated)
inactive: endpoint: mean survival time, dose: 75.0 mg/kg/injection, schedule: Q01DX001 (ip), vehicle: steriod suspending solution 90 % of control | endpoint: mean survival time, dose: 150.0 mg/kg/injection, schedule: Q01DX001 (ip), vehicle: steriod suspending solution 98 % of control | endpoint: mean survival time, dose: 300.0 mg/kg/injection, schedule: Q01DX001 (ip), vehicle: steriod suspending solution 98 % of control

CCC(C)C(=O)CN(C)c1ccccc1 (configuration not stated)
inactive: [5] 102 % of control | [6] 102 % of control | [7] 100 % of control

O=C(/C=C(\C(=O)c1ccccc1)c1ccccc1)c1ccccc1
inactive: [8] 95 % of control | [1] 92 % of control | [9] 96 % of control | [2] 87 % of control | [10] 101 % of control | [3] 87 % of control

O=C(O)C1CCc2c(cnn2-c2ccc(Cl)cc2)C1 (configuration not stated)
inactive: endpoint: mean survival time, dose: 100.0 mg/kg/injection, schedule: Q04DX002 (ip), vehicle: saline with Tween-80 96 % of control | endpoint: mean survival time, dose: 200.0 mg/kg/injection, schedule: Q04DX002 (ip), vehicle: saline with Tween-80 103 % of control | endpoint: mean survival time, dose: 400.0 mg/kg/injection, schedule: Q04DX002 (ip), vehicle: saline with Tween-80 103 % of control

COC(=O)c1ccc(C)c(O)c1[N+](=O)[O-]
inactive: [9] 100 % of control | [10] 96 % of control | endpoint: mean survival time, dose: 400.0 mg/kg/injection, schedule: Q01DX009 (ip), vehicle: saline with Tween-80 101 % of control

CS(=O)CN(c1c(Cl)c(Cl)c(NS(=O)(=O)c2ccccc2)c(Cl)c1Cl)S(=O)(=O)c1ccccc1 (configuration not stated)
inactive: [4] 96 % of control | endpoint: mean survival time, dose: 200.0 mg/kg/injection, schedule: Q01DX001 (ip), vehicle: saline with Tween-80 92 % of control | endpoint: mean survival time, dose: 400.0 mg/kg/injection, schedule: Q01DX001 (ip), vehicle: saline with Tween-80 92 % of control

O=c1nc2n(cc1F)C1OC(CCl)C(O)C1O2 (configuration not stated)
inactive: endpoint: median survival time, dose: 12.5 mg/kg/injection, schedule: Q01DX005 (ip), vehicle: saline with Tween-80 101 % of control | endpoint: median survival time, dose: 25.0 mg/kg/injection, schedule: Q01DX005 (ip), vehicle: saline with Tween-80 104 % of control | endpoint: median survival time, dose: 50.0 mg/kg/injection, schedule: Q01DX005 (ip), vehicle: saline with Tween-80 97 % of control | endpoint: median survival time, dose: 100.0 mg/kg/injection, schedule: Q01DX005 (ip), vehicle: saline with Tween-80 101 % of control | endpoint: median survival time, dose: 200.0 mg/kg/injection, schedule: Q01DX005 (ip), vehicle: saline with Tween-80 105 % of control

CC(/C=N/N(C)C)=N/[N+](C)(C)C
inactive: endpoint: mean survival time, dose: 50.0 mg/kg/injection, schedule: Q01DX009 (ip), vehicle: saline 101 % of control | [11] 101 % of control

CN(C)/N=C(\CBr)c1ccc(Br)cc1
inactive: endpoint: mean survival time, dose: 100.0 mg/kg/injection, schedule: Q01DX001 (ip), vehicle: saline 103 % of control | endpoint: mean survival time, dose: 200.0 mg/kg/injection, schedule: Q01DX001 (ip), vehicle: saline 100 % of control

CC(=O)Nc1ccc(OCCOC(=O)Nc2ccc(C)c([N+](=O)[O-])c2)cc1
inactive: endpoint: mean survival time, dose: 12.5 mg/kg/injection, schedule: Q01DX009 (ip), vehicle: saline with Tween-80 92 % of control | endpoint: mean survival time, dose: 25.0 mg/kg/injection, schedule: Q01DX009 (ip), vehicle: saline with Tween-80 88 % of control | [8] 92 % of control

CCCCCCCCC/C(C)=N\NC(=O)c1ccccc1
inactive: endpoint: mean survival time, dose: 100.0 mg/kg/injection, schedule: Q01DX009 (ip), vehicle: saline sonified 100 % of control | endpoint: mean survival time, dose: 400.0 mg/kg/injection, schedule: Q01DX009 (ip), vehicle: saline sonified 108 % of control

CS(=O)(=O)/C=C(\I)c1ccccc1
inactive: [11] 98 % of control | [5] 104 % of control | endpoint: mean survival time, dose: 200.0 mg/kg/injection, schedule: Q01DX009 (ip), vehicle: saline 93 % of control | [6] 106 % of control | endpoint: mean survival time, dose: 400.0 mg/kg/injection, schedule: Q01DX009 (ip), vehicle: saline 95 % of control | [7] 98 % of control
